Results on three compounds are retold here after patent publication US4732893A, “Amino-anthracenediones-platinum complexes useful as anticancer compounds” (priority 1984, dated 1988).

One series deals with L-1210 leukemia. Description: first experiment: L-1210 leukemia in mice, T/C percentage and long term survival. As to conditions: for Survival after 60 days: survivors/animals. Type of series: in vivo. On the procedure:
Pt(DMSO)Cl2 ].2HCl.H2 O (coded BBR 1651), water soluble, and cis-[1,4-bis-[2-(2-hydroxyethylamino)ethylamino]-5,8-dihydroxy-9,10-anthracenedione.PtCl2 ].2HCl.H2 O (coded BBR 1734) are tested in comparison with equimolecular dosages of 1,4-bis-[2-(2-hydroxyethylamino)ethylamino]-5,8-dihydroxy-9,10-anthracenedione (DHAQ.2HCl) and with c-DDP dosed at 7 mg/kg, against L-1210 leukemia in mice. Groups of 10 animals, treated with intraperitoneal injections of […] L-1210 cells, have been used at each dosage level, evaluating T/C percentage and long term survival, i.e. more than sixty days.
(§1) T/C percentage represents the percentual ratio of the mean survival time of the treated animals in comparison with the mean survival time of the control animals according to the methods described in "Anthracycline antibiotics" H. S. E. R Rhadem Edit., Academic Press, 1982.
(§2) LTS represents number of long-term (over 60 days) surviving animals with no pathologic episodes (i.e. cured animals).
A percentage of T/C over 120 indicates antitumoral activity; a percentage of T/C under 85 indicates toxicity.

For series [1], the system named is L-1210 leukemia sensitive to c-DDP. Description: second experiment: L-1210 leukemia sensitive to c-DDP, T/C, LTS, TOX. Format: in vivo, mice. As to conditions: for T/C percentage: L-1210 leukemia (sensitive to Pt), c-DDP 7 mg/kg, BBR 1734 1.55 mg/kg, BBR 1735 8 mg/kg; for T/C (1) %: range in parenthesis.
From the text: as §1, §2
(§3) (1) T/C: Mean survival time of treated mice/mean survival time of control
(untreated) mice × 100.
Mean survival time of treated mice is referred to dying animals only.
(2) LTS: Longterm survivors (>60 days), i.e. cured animals. Mean survival
(§4) (3) TOX: Toxic deaths are referred to animals dead before control animals
(§5) or to animals showing macroscopic toxic symptoms without tumor.
The data reported in Table 2 are the means of two subsequent experiments.

Series [2] is described as follows: Acute toxicity (LD50) in mouse. Type of series: in vivo. Particulars: intraperitoneal route.
Series [3] can be described thus: body weight, kidney weight and ureic nitrogen (nephrotoxicity) at LD50 doses. Type of series: in vivo, mouse. As to conditions: i.v.; for general toxicity / body weight (in words) / renal toxicity (in words): LD50 doses; for % Δ of the body weight / Final body weight / Kidney weight / Kidney weight g/100 of body weight / Initial body weight / Ureic Nitrogen: dose corresponding to respective LD50; for Initial body weight: before treatment; for Ureic Nitrogen: urea content. How it is done:
The percent decrease of the body weight, the kidney weight and the ureic nitrogen excretion were determined for each treated group. The increase of kidney weight and the increase of ureic plasma content were assumed as nephrotoxic index of the compounds (see for example O. Tofanetti et al., "Tumori", 69, 105, 1983).

Series [4] deals with c-DDP resistant L-1210 leukemia. Description: c-DDP resistant L-1210 leukemia, T/C, LTS, TOX. Type of series: in vivo, mice.
From the text: as §1, §3
(untreated) mice × 100. Mean survival time of treated mice is
referred to dying animals only. N.ev.: not evaluable as consequence of th
(2) LTS: Longterms survivors (>30 days), i.e. cured animals.
as §4, §5

For series [5], the system named is genito-urinary tumors, head and neck cancer, osteogenic sarcoma. As to conditions: human, in vivo; cited from earlier work.
[6] abbreviates: 1.93 × 10^-6 moles/kg (BBR 1734 1.55, BBR 1651 1.85, DHAQ.2HCl 1.00 mg/kg).
The mark [7] stands for this setting: 3.86 × 10^-6 moles/kg (BBR 1734 3.10, BBR 1651 3.70, DHAQ.2HCl 2.00 mg/kg).
[8] abbreviates: 21 × 10^-6 moles/kg (c-DDP 7.00 mg/kg).
Setting [9] is: 21 × 10^-6/kg (c-DDP 7.1 mg/kg).
Where [10] appears, read: 29.6 × 10^-6/kg (c-DDP 10.0 mg/kg).
Where [11] appears, read: 21 × 10^-6 moles/kg (c-DDP 7.1 mg/kg).
Setting [12] is: 29.2 × 10^-6 moles/kg (c-DDP 10.0 mg/kg).

Each structure is given as a SMILES string.

With `Cl.Cl.O.O=C1c2c(O)ccc(O)c2C(=O)c2c3ccc(c21)NCC[NH+](CCO)[Pt-2]([Cl])([Cl])[NH+](CCO)CCN3` (stereo not drawn) [BBR 1734, cis-[1,4-bis-[2-(2-hydroxyethylamino)ethylamino]-5,8-dihydroxy-9,10-anthracenedione.PtCl2].2HCl.H2 O], in the series on L-1210 leukemia (setting [6]), the “% T/C” value is on record as 200% and the “Survival after 60 days” value is reported as 0/10. Besides, in the series on L-1210 leukemia (setting [7]), the “% T/C” value came to 224% and the “Survival after 60 days” value was 1/10. Besides, the “Survival after 60 days” value in the series with L-1210 leukemia (7.73 × 10^-6 moles/kg (BBR 1734 6.20, BBR 1651 7.40, DHAQ.2HCl 4.00 mg/kg)) is reported as 7/10. For the same compound, the “antitumor activity (in words)” value in the series with L-1210 leukemia (versus c-DDP and ligand alone) was “good activities with better results than those obtained using the known c-DDP and the aminoanthracenedione ligand alone”. The T/C percentage in series [1] is on record as around 200. Moreover, the “Acute toxicity (LD50)” value in series [2] came to 22.9 mg/kg. In addition, in series [3], the “general toxicity / body weight (in words)” value is “general toxicity as indicated by the decrease of the body weight”, the “renal toxicity (in words)” value was “do not impair the renal excretory function and/or change the relative kidney weight”, the “% Δ of the body weight” value is -20.4% and the Final body weight is on record as 28.4 ± 0.775. In series [3], the Kidney weight came to 0.362 ± 0.012, the “Kidney weight g/100 of body weight” value is 1.282 ± 0.036 g/100 of body weight, the Initial body weight is 34.2 ± 0.731 and the “Ureic Nitrogen” value was 14.85 ± 0.866 100 mg/ml of plasma.

Take `Cl.Cl.O.O=C1c2ccccc2C(=O)c2c3ccc(c21)NCC[NH+](CCO)[Pt-2]([Cl])([Cl])[NH+](CCO)CCN3` (stereo not drawn) [BBR 1735, cis-[1,4-bis-[2-(2-hydroxyethylamino-ethyl)-amino]-9,10-anthracenedione.PtCl2].2HCl.H2 O]: in series [1], the T/C percentage was around 200. For the same compound, the “Acute toxicity (LD50)” value in series [2] was 30.0 mg/kg. Also, in series [3], the “general toxicity / body weight (in words)” value is on record as “general toxicity as indicated by the decrease of the body weight”, the “renal toxicity (in words)” value is reported as “do not impair the renal excretory function and/or change the relative kidney weight”, the “% Δ of the body weight” value was -5.4% and the Final body weight was 33.1 ± 1.103. For the same compound, in series [3], the Kidney weight was found to be 0.428 ± 0.02, the “Kidney weight g/100 of body weight” value is 1.293 ± 0.042 g/100 of body weight, the Initial body weight was 34.9 ± 0.857 and the “Ureic Nitrogen” value was 14.88 ± 0.565 100 mg/ml of plasma.

In the case of `N.N.[Cl][Pt][Cl]` [c-DDP, cis-diaminodichloroplatinum^II], in the series with L-1210 leukemia (setting [8]), the “% T/C” value turned out to be 200% and the “Survival after 60 days” value is reported as 0/10. Moreover, in series [4] (setting [9]), the “LTS (2) (>30 days)” value is 0/10 and the “T/C (1) %” value is listed as 100%. For the same compound, in series [4] (setting [10]), the “LTS (2) (>30 days)” value is listed as 0/10 and the “T/C (1) %” value was 100%. Moreover, in series [4] (animals injected with cis-platin resistant leukemia cells), the “activity (in words)” value is reported as “uneffective”. For the same compound, in series [5], the “clinical activity (in words)” value is “activity is well demonstrated”; the “serious side effects (in words)” value was “gastrointestinal (nausea and vomiting often severe and prolungated), renal (dose-limiting renal insufficiency), hematological, neurological (ototoxicity) complications”. Also, in series [1] (setting [11]), the “LTS (2) (>60 days)” value is given as 0/20 and the “T/C (1) %” value is 193 (187-200) %. In addition, the “T/C (1) %” value in series [1] (21 × 10^-6 moles/kg (c-DDP 7.1 mg/kg), listed as cis-platin) is 193%. In series [1] (setting [12]), the “LTS (2) (>60 days)” value is on record as 1/20 and the “T/C (1) %” value is listed as 93 (87-100) %. The T/C percentage in series [1] is listed as around 200.
